We go through three compounds from US20050004005A1, “Methods of treating diseases responsive to Induction of Apoptosis” (priority 2003, published 2005).

For test [1], the system named is caspase cascade. The test can be described thus: Activation of the caspase cascade and induction of apoptosis in cells (earlier Cai et al. applications). The note with it: typically. The class given is cell-based.
For test [2], the system named is caspase cascade. The note with it: as described in Ser. No. 10/164,705 and 60/433,953; cited from earlier work.
The target in another test is T1, GST-Tip47 (Homo sapiens, UniProt O60664, I56V/V275A).
T1 construct: Full-length Tip47 cDNA was cloned into the pGEX-4T-1; made in house; host or cells: E. coli BL-21
T1 sequence (O60664 1-434 I56V/V275A): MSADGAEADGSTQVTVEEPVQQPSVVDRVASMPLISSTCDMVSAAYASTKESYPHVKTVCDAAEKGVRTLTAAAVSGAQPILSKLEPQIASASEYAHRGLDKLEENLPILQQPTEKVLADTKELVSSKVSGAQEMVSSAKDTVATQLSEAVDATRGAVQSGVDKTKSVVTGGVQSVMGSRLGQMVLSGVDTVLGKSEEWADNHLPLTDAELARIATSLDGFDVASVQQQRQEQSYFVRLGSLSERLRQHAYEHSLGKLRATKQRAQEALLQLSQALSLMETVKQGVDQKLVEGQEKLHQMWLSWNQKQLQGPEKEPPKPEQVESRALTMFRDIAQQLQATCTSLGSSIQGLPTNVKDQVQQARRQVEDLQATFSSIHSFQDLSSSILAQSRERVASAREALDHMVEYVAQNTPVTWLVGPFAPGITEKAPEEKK
The test can be described thus: Binding of tritiated compound to GST-Tip47 immobilized on anti-GST Protein A Sepharose, scintillation counting. The note with it: 2 μM compound, 1 hour room temperature, TBS pH 8.0, FIG. 1A. How it is done:
2 μM 3-(3,5-ditritium-4-azidophenyl)-5-(3-chloro-thiophen-2-yl)-[1,2,4]-oxadiazole (Example 3) was added to either Protein A Sepharose only, Protein A Sepharose plus anti-GST antibody, anti-GST/Protein A Sepharose plus GST only, or anti-GST/Protein A Sepharose plus GST-Tip47. After TBS washes, eluate was counted on a scintillation counter.
Full-length Tip47 cDNA was cloned into the pGEX-4T-1, a glutathione S-transferase (GST) gene fusion system (Amersham, Piscataway, N.J.) using standard methods. Briefly, PCR primers to the 5′ and 3′ region of the gene were designed to contain restriction sites that allowed for the in frame cloning of Tip47 into the pGEX-4T-1 vector. Subsequent to sequence verification, the pGEX-Tip47 construct was transformed into the E.Coli BL-21 strain.
In order to perform binding studies on Tip47, GST-Tip47 was immobilized on Sepharose. To begin, 10 μg of anti-GST antibody (cat. # sc-459, rabbit polyclonal, Santa Cruz Biotechnology, Santa Cruz, Calif.) was incubated with 20 μl of protein A Sepharose (Zymed, South San Francisco, Calif.), in TBS (pH 8.0), total volume 200 μl, for 1 hour at room temperature. Beads were washed 3 times with TBS (pH 8.0). […] Eluates were added to 5 ml of scintillation cocktail and counted using ^3H protocol. […]

The target in a further test is T2, Tip47 (Homo sapiens, UniProt O60664, I56V/V275A).
T2 construct: This supernatant is T47D cytosol; endogenous in cells; host or cells: T47D breast cancer cells
T2 sequence (O60664 1-434 I56V/V275A): T1 sequence (O60664 1-434 I56V/V275A)
The test is described as follows: Photolabeling of T47D cytosol, immunoprecipitation with anti-Tip47, SDS-PAGE and autoradiography. It is filed as binding. The note with it: T47D cytosol labeled with 20 nM compound, UV 254 nm, anti-fibronectin as control, FIG. 1B. How it is done: T47D cytosol was labeled with 20 nM 3-(3,5-ditritium-4-azidophenyl)-5-(3-chloro-thiophen-2-yl)-[1,2,4]-oxadiazole (Example 3) and immunoprecipitated with anti-fibronectin (as a control) or anti-Tip47. The immunoprecipitated complex was subject to SDS-PAGE and autoradiography.
For immunoprecipitations, T47D cells were first washed in PBS and then resuspended in CLB Buffer (10 mM HEPES, 10 mM NaCl, 1 mM KH2PO4, 5 mM NaHCO3, 1 mM CaCl2, 0.5 mM MgCl2, 5 mM EDTA) plus 0.1% protease inhibitor cocktail (Sigma, St. Louis, Mo.). Cells were allowed to swell in 5 minutes at room temperature and then were homogenized in a tight fitting Dounce homogenizer with 50 strokes. Lysate was spun 2,200×g, 5 minutes, at 4° C. The supernatant was then spun at 100,000×g, 40 minutes at 4° C. This resulting supernatant was called T47D cytosol. Protein concentration determined by the D/C Protein Assay (Bio-Rad, Hercules, Calif.).
20 riM 3-(3,5-ditritium-4-azidophenyl)-5-(3-chloro-thiophen-2-yl)-[1,2,4]-oxadiazole (Example 3) (stock is 20 μM, 1 mCi/ml, 50 Ci/mmol) was added to 1 mg T47D cytosol in 1 ml CLB Buffer and incubated, rocking, for 30 minutes at room temperature. Lysates were then exposed to a Short Wave UV Source (254 nm) for 10 minutes.
Labeled lysates were pre-cleared with 50 μl solution of Protein A Sepharose (Zymed, South San Francisco, Calif.) for 2 hours at 4° C. […]

A further test deals with T3, Tail Interacting Protein (Homo sapiens, UniProt O60664, I56V/V275A).
T3 construct: This supernatant is T47D cytosol; endogenous in cells; host or cells: T47D breast cancer cells
T3 sequence (O60664 1-434 I56V/V275A): T1 sequence (O60664 1-434 I56V/V275A)
The test can be described thus: Photo-affinity radiolabeling of T47D cytosol, two-dimensional gel and autoradiography. The note with it: 200 nM compound, 300 μg T47D cytosol, UV 254 nm 10 minutes. It is filed as binding. As for the experimental part:
Isolation of Tail Interacting Protein from Cell Extracts by Photo-affinity Radiolabeling: T47D breast cancer cell line was grown in RPMI 1640 medium containing 25 mM Hepes and L-glutamine (Gibco) supplemented with 10% FCS and penicillin/streptomycin. 8×10^6 T47D cells in 25 mL medium were plated on a 100 mm dish and grown overnight in RPMI medium supplemented with 10% FCS and penicillin/streptomycin. Cells were scraped with Cell lifter (Fisher) into a conical tube and centrifuged for 5 minutes at 450×g. Cells were washed one time with 1 mL PBS (1,160×g for 3 minutes) and then resuspended in 0.25 mL Cell Lysis Buffer (CLB) (10 mM HEPES, pH 7.2, 10 mM NaCl, 1 mM KH2PO4, 5 mM NaHCO3, 1 mM CaCl2, 0.5 mM MgCl2, 5 mM EDTA) plus 0.1% Protease Inhibitor Cocktail (Sigma). Cells were allowed to swell 5 minutes at room temperature and then homogenized using Dounce homogenizer and Type A pestle (tight) 50 times on ice. After centrifugation at 2,200×g, for 5 minutes, 4° C., the supernatant was spun at 108,000×g, for 40 minutes at 4° C. This supernatant is T47D cytosol. Protein concentration is determined by BioRad DC assay.
300 μg T47D cytosol in 100 μL CLB was added in the well of a 96-well plate. […]

The subject of the next test is cyclin D1. The test is described as follows: Realtime PCR of mRNA levels in compound-treated T47D cells. It is filed as cell-based. The note with it: 5 μM, 18 h, versus DMSO, FIG. 2. How it is done:
FIG. 2: The effect of 5-(3-chlorothiophen-2-yl)-3-(5-chloro-pyridin-2-yl)-[1,2,4]-oxadiazole on mRNA levels of genes of interest. T47D cells were treated for 18 h with 5 μM of 5-(3-chlorothiophen-2-yl)-3-(5-chloro-pyridin-2-yl)-[1,2,4]-oxadiazole or DMSO and total RNA was then isolated. mRNA levels of TGFbeta, p21, cyclin D1, IGF2R, and IGFBP3 were quantitated using realtime PCR as fold change of treatment/control.
For cDNA synthesis and quantitative PCR, total RNA was extracted using the TRIzol reagent (Invitrogen Corporation, Carlsbad, Calif.) according to the manufacturer's instructions. Total RNA was quantitated, denatured, and electrophoresed in an agarose-formaidehyde gei to determine integrity of total RNA. 2 μg of total RNA was then used to make cDNA by reverse transcription using the Retroscript cDNA synthesis kit (Ambion Austin, Tex.) according to the manufacturer's instructions. Quantitative PCR was done by Sybrgreen incorporation using the Quantitect kit (Qiagen, Valencia, Calif.) on the LightCycler (Roche Molecular Biochemicals, Mannheim, Germany) using standard conditions. Data was normalized against the housekeeping gene, cyclophilin. The cells transfected with cyclophilin as a control was normalized against glyceraldehyde phosphate dehydrogenase (GAPD).

As for `[N-]=[N+]=Nc1ccc(-c2noc(-c3sccc3Cl)n2)cc1` [3-(4-Azidophenyl)-5-(3-chloro-thiophen-2-yl)-[1,2,4]-oxadiazole], the “Time to induction of apoptosis in cells upon binding to TIPRAIP” value in the test with caspase cascade [1] lay within 24 to 48 h. Moreover, the “Activation of the caspase cascade and of apoptosis” value in the test on caspase cascade [2] is “potent and highly efficacious activators of the caspase cascade”.
In the case of `[3H]c1cc(-c2noc(-c3sccc3Cl)n2)cc([3H])c1N=[N+]=[N-]` [Example 3, 3-(3,5 -Ditritium-4-azidophenyl)-5-(3-chloro-thiophen-2-yl)-[1,2,4]-oxadiazole], the “Binding to GST-Tip47 immobilized on α-GST-Protein A-Sepharose” value on GST-Tip47 was “binding to GST-Tip47”. For the same compound, the “Binding to immunoprecipitated Tip47 from cell lysates” value at Tip47 is “binding to immunoprecipitated Tip47”. Moreover, on Tail Interacting Protein, the “Radiolabeled protein on 2-D gel autoradiography” value is recorded as “single radiolabeled spot”.
Take `Clc1ccc(-c2noc(-c3sccc3Cl)n2)nc1` [compound A, 5-(3-chlorothiophen-2-yl)-3-(5-chloro-pyridin-2-yl)-[1,2,4]-oxadiazole]: the “Gene expression profile: cyclin D1 mRNA level” value in the test with cyclin D1 is “down regulation of cyclin D1”.
